From the OPERA property sets (Mansouri et al. 2018)

Conditions: not given
Molecule C=CCC(C(C)=O)C(=O)OCC (stereo unspecified) has a boiling point of 208 °C. For CN(C)C(=O)Oc1ccc[n+](C)c1.[Br-], the melting point was 153 °C. In the case of O=Cc1ccc(Br)o1, the boiling point is reported as 201 °C. COc1cc2nc(N3CCN(C(=O)C4CCCO4)CC3)nc(N)c2cc1OC (stereo unspecified) gave a melting point of 273 °C. With O=S1(=O)CCCO1 the melting point was 31.5 °C and the ready biodegradability was “readily biodegradable”. For O=C(O)c1cccc(O)c1, the melting point was 202 °C and the ready biodegradability was “readily biodegradable”. CCOC(=O)Nc1cccc(OC(=O)Nc2ccccc2)c1 gave a log10 Koc (L/kg) of 3.18, a log10 vapour pressure (mmHg) of -8.52 and a melting point of 120 °C. For O=P(OCC(Br)CBr)(OCC(Br)CBr)OCC(Br)CBr (stereo unspecified), the melting point was 5.5 °C and the ready biodegradability was “readily biodegradable”. In the case of BrCCCCCCCCCCCCBr, the melting point is reported as 41 °C. Molecule CC12CCC(CC1=NO)C2(C)C (stereo unspecified) has a melting point of 118 °C. c1csc(-c2cccs2)c1 gave a boiling point of 260 °C and a melting point of 33 °C. In the case of CC(=O)Nc1ccc(OC(=O)c2ccccc2O)cc1, the melting point is reported as 187 °C. In the case of C=C1C=CC(C(C)C)CC1 (stereo unspecified), the boiling point is reported as 172 °C and the log10 vapour pressure (mmHg) is reported as 0.2. Work on CC(C)(Cl)CCC(C)(C)Cl yielded a melting point of 67.5 °C. With CC1(C)CCCNC1 the boiling point was 137 °C. For CNC(=O)Oc1cc(C)c(C)c(C)c1, the log10 Koc (L/kg) was 2.6, the log10 vapour pressure (mmHg) was -4.29 and the melting point was 109 °C. For O=c1c(-c2ccccc2)c1-c1ccccc1, the melting point was 119 °C. O=C1NC(=O)C([N+](=O)[O-])C(=O)N1 gave a melting point of 180 °C. In the case of COc1cc(OC)c2ccc(=O)oc2c1, the melting point is reported as 149 °C. In the case of CCOC(=O)C=Cc1ccccc1, the boiling point is reported as 271 °C, the log10 vapour pressure (mmHg) is reported as -2.49 and the melting point is reported as 7 °C. Molecule O=C(O)COc1ccc(Cl)cc1 has a melting point of 164 °C. Work on CC=CCCCCCCCCO yielded a boiling point of 248 °C and a melting point of 6 °C. With CCOC(=O)CCCl the boiling point was 162 °C. Nc1nc2c(ncn2COCCO)c(=O)[nH]1 showed a melting point of 255 °C. With CB(C)N(C)C the boiling point was 65 °C and the melting point was -92 °C. For O=C(O)c1cccc(-c2ccccc2)c1O, the melting point was 186 °C. In the case of Cc1cc(N(C)C)ccc1N=Nc1ccccc1, the melting point is reported as 68 °C. Work on O=c1[nH]c2ccccc2o1 yielded a boiling point of 335 °C and a melting point of 138 °C. For CCC(C)C=O (stereo unspecified), the melting point was 91 °C. Molecule CCCC1C(=O)N2C(N(C)C)=Nc3ccc(C)cc3N2C1=O (stereo unspecified) has a melting point of 247 °C. With CC(=O)NC(Cc1c[nH]c2ccccc12)C(=O)O (stereo unspecified) the melting point was 190 °C. With C=CC1CC=CCC1 (stereo unspecified) the boiling point was 128 °C, the log10 vapour pressure (mmHg) was 1.2 and the melting point was -109 °C. For the same molecule, the ready biodegradability was “not readily biodegradable”. Molecule C=C1CCO[C@]2([C@H](O)[C@@](C)(O)CO)NC(=O)[C@@]1(O)NC2=O has a melting point of 188 °C. C=C(CC)c1ccccc1 showed a boiling point of 182 °C. For COC(=O)C1(S(=O)(=O)c2ccccc2)CC1, the melting point was 74.5 °C. For O=C(C1CCCCC1)N1CC(=O)N2CCc3ccccc3C2C1 (stereo unspecified), the melting point was 136 °C. With CC(C)(C)CC1(C)CO1 (stereo unspecified) the boiling point was 141 °C and the melting point was -64 °C. For O=C(O)CCCCCCCCCCCCCCCO, the melting point was 98 °C. In the case of CC(C)CN(C)C, the boiling point is reported as 80.5 °C. Cc1c(COC(=O)[C@@H]2[C@H](/C=C(\Cl)C(F)(F)F)C2(C)C)cccc1-c1ccccc1 (racemic) gave a log10 Koc (L/kg) of 5.35, a log10 vapour pressure (mmHg) of -6.74 and a melting point of 69 °C. In the case of Cc1ccccc1S, the boiling point is reported as 195 °C, the log10 vapour pressure (mmHg) is reported as -0.193 and the melting point is reported as 15 °C. O=C(O)[C@@H](S)[C@@H](S)C(=O)O showed a melting point of 193 °C. Work on CC[C@]1(O)CC[C@H]2[C@@H]3CCC4=CCCC[C@@H]4[C@H]3CC[C@@]21C yielded a melting point of 77 °C. CCCC(C)(C)C(=O)Nc1ccc(Cl)cc1 showed a melting point of 87.5 °C. With c1ccc(N(CC2CO2)CC2CO2)cc1 (stereo unspecified) the ready biodegradability was “not readily biodegradable”. O=C1c2ccccc2N(C(=O)CN2CCOCC2)CN1c1ccccc1 showed a melting point of 136 °C. FC(Cl)=C(Cl)C(F)(F)F gave a boiling point of 47.3 °C and a melting point of -137 °C.

Same assay, conditions: fish
For Cc1c(Cl)c(Cl)c(C)c(Cl)c1Cl, the log10 BCF was 3.62 and the log10 biotransformation half-life (days) was 1.12. With O=P(OCC(Br)CBr)(OCC(Br)CBr)OCC(Br)CBr (stereo unspecified) the log10 BCF was 0.51. In the case of C=CC1CC=CCC1 (stereo unspecified), the log10 BCF is reported as 2.22 and the log10 biotransformation half-life (days) is reported as -0.41. With O=[N+]([O-])c1cccc(S(=O)(=O)[O][Na])c1 the log10 BCF was 0.7.
